The source made the active and inactive calls. The rule behind the calls is not given here.
Test system: rodent carcinogenicity bioassays, tumor incidence
Assay: CCRIS carcinogenicity studies
Settings: Dose: 0
In short: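 Archive of carcinogenicity, mutagenicity, tumor promotion and tumor inhibition results drawn from journals, NCI reports and other sources, expert-reviewed; covers 1985-2011 and is no longer updated.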

`O=[N+]([O-])c1cccc2c1-c1cccc3c([N+](=O)[O-])ccc-2c13` was tested, and the carcinogen call (Species: RAT, Strain/Sex: F344/DUCRJ/MALE, Route: PULMONARY IMPLANT, 0.2 MG AS A SUSPENSION IN EQUAL VOL OF BEESWAX AND TRICAPRYLIN IMPLANTED IN LEFT LUNG (STUDY DURATION: 70 WK), Tumor Site: Type of Lesion: LUNG: TUMOR) was “active; positive”, the carcinogen call (Species: RAT, Strain/Sex: F344/MALE, Route: LUNG IMPLANT, 200 UG IN BEESWAX/TRICAPRYLIN INTO LOWER LEFT LUNG ONCE (STUDY DURATION: 100 WK), Tumor Site: Type of Lesion: LUNG: SQUAMOUS CELL CARCINOMA) was “active; positive” and the carcinogen call (Species: RAT, Strain/Sex: F344/MALE, Route: PULMONARY IMPLANT, 200 UG IN 50 µL BEESWAX/TRICAPRYLIN IMPLANTED FOR UP TO 100 WK (STUDY DURATION: 100 WK), Tumor Site: Type of Lesion: LUNG: TUMOR) was “active; positive”.
With `S=c1[nH]c2ccccc2s1` the carcinogen call (Species: MOUSE, Strain/Sex: B6C3F1/FEMALE, Route: GAVAGE, 375, 750 MG/KG IN CORN OIL 5D/WK FOR 103 WK (STUDY DURATION: 104 WK), 375, 750 MG/KG IN CORN OIL 5D/WK FOR 103 WK (STUDY DURATION: 104 WK), Tumor Site: Type of Lesion: LIVER: HEPATOCELLULAR ADENOMA OR CARCINOMA) was “equivocal”, the carcinogen call (Species: MOUSE, Strain/Sex: B6C3F1/MALE, Route: GAVAGE, 375, 750 MG/KG IN CORN OIL 5D/WK FOR 103 WK (STUDY DURATION: 104 WK), 375, 750 MG/KG IN CORN OIL 5D/WK FOR 103 WK (STUDY DURATION: 104 WK)) was “inactive; negative” and the carcinogen call (Species: RAT, Strain/Sex: F344/FEMALE, Route: GAVAGE, 188, 375 MG/KG IN CORN OIL 5D/WK FOR 103 WK (STUDY DURATION: 105 WK), 188, 375 MG/KG IN CORN OIL 5D/WK FOR 103 WK (STUDY DURATION: 105 WK), Tumor Site: Type of Lesion: PITUITARY GLAND: ADENOMA, PITUITARY GLAND: ADENOMA OR ADENOCARCINOMA, ADRENAL GLAND: PHEOCHROMOCYTOMA, Tumor Site: Type of Lesion: PITUITARY GLAND: ADENOMA, PITUITARY GLAND: ADENOMA OR ADENOCARCINOMA, ADRENAL GLAND: PHEOCHROMOCYTOMA) was “active; positive”. For the same compound, the carcinogen call (Species: RAT, Strain/Sex: F344/MALE, Route: GAVAGE, 375, 750 MG/KG IN CORN OIL 5D/WK FOR 103 WK (STUDY DURATION: 105 WK), 375, 750 MG/KG IN CORN OIL 5D/WK FOR 103 WK (STUDY DURATION: 105 WK), Tumor Site: Type of Lesion: HEMATOPOIETIC SYSTEM: MONONUCLEAR CELL LEUKEMIA, PANCREAS: ACINAR CELL ADENOMA) was “active; positive”.
In the case of `O=C(Nc1ccc([N+](=O)[O-])cc1Cl)c1cc(Cl)ccc1O`, the carcinogen call (Species: MOUSE, Strain/Sex: B6C3F1/FEMALE, Route: ORAL, 274, 549 PPM IN DIET FOR 78 WK (STUDY DURATION: 91-92 WK), 274, 549 PPM IN DIET FOR 78 WK (STUDY DURATION: 91-92 WK)) is reported as “inactive; negative”, the carcinogen call (Species: RAT, Strain/Sex: OSBORNE-MENDEL/FEMALE, Route: ORAL, 14216, 28433 PPM IN DIET FOR 78 WK (STUDY DURATION: 110-111 WK), 14216, 28433 PPM IN DIET FOR 78 WK (STUDY DURATION: 110-111 WK), Tumor Site: Type of Lesion: MAMMARY GLAND: ADENOCARCINOMA, STOMACH: CARCINOMA) is reported as “equivocal” and the carcinogen call (Species: RAT, Strain/Sex: OSBORNE-MENDEL/MALE, Route: ORAL, 14216, 28433 PPM IN DIET FOR 78 WK (STUDY DURATION: 110-111 WK), 14216, 28433 PPM IN DIET FOR 78 WK (STUDY DURATION: 110-111 WK)) is reported as “inactive; negative”.
`Clc1cc2oc3c(Cl)c(Cl)c(Cl)cc3c2cc1Cl` was tested, and the carcinogen call (Species: RAT, Strain/Sex: SPRAGUE-DAWLEY/FEMALE, Route: ORAL, 6, 20, 44, 92, 200 NG/KG/D (STUDY DURATION: 2 YRS), 6, 20, 44, 92, 200 NG/KG/D (STUDY DURATION: 2 YRS)) was “inactive; negative”, the carcinogen call (Species: RAT, Strain/Sex: WISTAR/MALE, Route: SUBCUTANEOUS, 4, 40 UG ONCE IN OLIVE OIL (STUDY DURATION: 104 WK), 4, 40 UG ONCE IN OLIVE OIL (STUDY DURATION: 104 WK), Tumor Site: Type of Lesion: LIVER: HEPATOCELLULAR CARCINOMA, NODULE, INJECTION SITE: TUMOR) was “active; positive” and the carcinogen call (Species: RAT, Strain/Sex: WISTAR/MALE, Route: SUBCUTANEOUS, 4, 40 UG ONCE IN OLIVE OIL (STUDY DURATION: 104 WK), 4, 40 UG ONCE IN OLIVE OIL (STUDY DURATION: 104 WK), Tumor Site: Type of Lesion: LIVER: NODULE, INJECTION SITE: TUMOR) was “active; positive”. The carcinogen call (Species: RAT, Strain/Sex: WISTAR/MALE, Route: SUBCUTANEOUS, 20 UG IN OLIVE OIL 1/WK INTO BACK FOR 4 WK (STUDY DURATION: 104 WK), Tumor Site: Type of Lesion: LIVER: NODULE, INJECTION SITE: TUMOR) was “active; positive”, the carcinogen call (Species: RAT, Strain/Sex: WISTAR/MALE, Route: SUBCUTANEOUS, 20 UG IN OLIVE OIL INTO BACK 1/WK FOR 4 WK (STUDY DURATION: 104 WK), Tumor Site: Type of Lesion: LIVER: HEPATOCELLULAR CARCINOMA, NODULE) was “active; positive” and the carcinogen call (Species: Rat, Strain/Sex: Harlan Sprague-Dawley/Female, Route: Gavage, 200 ng 5 d/wk in corn oil:acetone (99:1) for 30 wk and then vehicle for remainder of 2 yr study, Tumor Site: Type of Lesion: Oral Mucosa: Gingival squamous cell carcinoma (1/53, 3/50) Pancreas: Acinar adenoma or carcinoma (0/53, 2/49)) was “active; positive trend (not statistically significant); for stop study vs. controls, inc”. For the same compound, the carcinogen call (Species: Rat, Strain/Sex: Harlan Sprague-Dawley/Female, Route: Gavage, 6, 20, 44, 92, 200 ng in corn oil:acetone (99:1) 5 d/wk for 2 yrs, 6, 20, 44, 92, 200 ng in corn oil:acetone (99:1) 5 d/wk for 2 yrs, Tumor Site: Type of Lesion: Liver: Hepatocellular adenoma (1/53, 0/53, 1/53, 0/52, 2/53, 4/53), Cholangiocarcinoma (0/53, 0/53, 0/53, 1/52, 1/53, 2/) was “active; positive (ntp reports as some evidence; findings in lung, pancreas, and uterus d”.
For `O=C1C=C[C@H]2CO[C@@H]1O2`, the carcinogen call (Species: MOUSE, Strain/Sex: CD-1/FEMALE, Route: DERMAL, 2.5 UMOL/0.1 DMSO 2/WK FOR 5 WK FOLLOWED 1 WK LATER BY 0.1 ML ACETONE 2/WK FOR 47 WK (STUDY DURATION: 52 WK)) was “inactive; negative”.
In the case of `CC(=O)CN(N=O)C(N)=O`, the carcinogen call (Species: RAT, Strain/Sex: F344/FEMALE, Route: GAVAGE, 8 MG/ML IN CORN OIL/ETHYL ACETATE (2:1) 2/WK FOR 30 WK (STUDY DURATION: LIFETIME), Tumor Site: Type of Lesion: KIDNEY MESENCHYME: TUMOR, THYROID: FOLLICULAR TUMOR) is reported as “active; positive” and the carcinogen call (Species: RAT, Strain/Sex: F344/MALE, Route: GAVAGE, 8 MG/ML IN CORN OIL/ETHYL ACETATE (2:1) 2/WK FOR 30 WK (STUDY DURATION: LIFETIME), Tumor Site: Type of Lesion: LUNG: TUMOR, MESOTHELIUM: TUMOR, KIDNEY MESENCHYME: TUMOR, Tumor Site: Type of Lesion: LUNG: TUMOR, MESOTHELIUM: TUMOR, KIDNEY MESENCHYME: TUMOR) is reported as “active; positive”.
In the case of `OCCOCCO`, the carcinogen call (Species: RAT, Strain/Sex: F344/FEMALE, Route: ORAL, 1.25, 2.5% IN DRINKING WATER FOR 108 WK (STUDY DURATION: 108 WK), 1.25, 2.5% IN DRINKING WATER FOR 108 WK (STUDY DURATION: 108 WK)) is reported as “inactive; negative” and the carcinogen call (Species: RAT, Strain/Sex: F344/MALE, Route: ORAL, 1.25, 2.5% IN DRINKING WATER FOR 108 WK (STUDY DURATION: 108 WK), 1.25, 2.5% IN DRINKING WATER FOR 108 WK (STUDY DURATION: 108 WK)) is reported as “inactive; negative”.
With `O[C@H]1C=CC=C[C@@H]1O` the carcinogen call (Species: MOUSE, Strain/Sex: SWISS/FEMALE, Route: INTRAPERITONEAL, 50 UMOL ADMINISTERED AS 3 UNEQUAL DOSES (1/7, 2/7, AND 4/7 OF THE TOTAL DOSE) OVER A 2-WK PERIOD (STUDY DURATION: 28) was “inactive; negative” and the carcinogen call (Species: MOUSE, Strain/Sex: SWISS/MALE, Route: INTRAPERITONEAL, 50 UMOL ADMINISTERED AS 3 UNEQUAL DOSES (1/7, 2/7, AND 4/7 OF THE TOTAL DOSE) OVER A 2-WK PERIOD (STUDY DURATION: 28) was “inactive; negative”.
